Assay results: ChEMBL document CHEMBL5055685, “Discovery of the First Potent IDO1/IDO2 Dual Inhibitors: A Promising Strategy for Cancer Immunotherapy” (J Med Chem, 2021)
Calls of active or inactive are those of the source.

What was measured:
[1] = molecular target: Serine/threonine-protein kinase Nek7 (Homo sapiens) (UniProt Q8TDX7); assay: Inhibition of NEK7 (unknown origin) at 1 uM
[2] = molecular target: Serine/threonine-protein kinase N2 (Homo sapiens) (UniProt Q16513); assay: Inhibition of PKN2 (unknown origin) at 1 uM
[3] = molecular target: Myosin light chain kinase 2, skeletal/cardiac muscle (Homo sapiens) (UniProt Q9H1R3); assay: Inhibition of MLCK2 (unknown origin) at 1 uM
[4] = molecular target: Aryl hydrocarbon receptor (Homo sapiens, UniProt P35869); assay: Activation of AhR (unknown origin) assessed as effect on CYP1A1 mRNA expression measured after 24 hrs by quantitative RT-PCR analysis; format: ADME
[5] = molecular target: CDK9/Cyclin-T2 (Homo sapiens) (UniProt P50750+O60583); assay: Inhibition of CDK9/cyclin-T2 (unknown origin) at 1 uM; format: protein-complex assay
[6] = Efflux ratio of apparent permeability across basolateral to apical over apical to basolateral side in human Caco-2 cells; format: ADME, cell-based
Homo sapiens = species on record: Homo sapiens; assay: Inhibition of PKG2 (unknown origin) at 1 uM
CT26 = assay: Antitumor activity against mouse CT26 cells implanted in BALB/c mouse assessed as tumor growth inhibition at 50 mg/kg, ip bid for 28 days by vernier caliper method relative to control; format: functional; details: CT26, 672 h, time 28 day, read-out: TGI
[7] = molecular target: Megakaryocyte-associated tyrosine-protein kinase (Homo sapiens) (UniProt P42679); assay: Inhibition of CTK (unknown origin) at 1 uM
[8] = molecular target: Homeodomain-interacting protein kinase 1 (Homo sapiens) (UniProt Q86Z02); assay: Inhibition of HIPK1 (unknown origin) at 1 uM
[9] = molecular target: Mitogen-activated protein kinase kinase kinase 19 (Homo sapiens) (UniProt Q56UN5); assay: Inhibition of YSK4 (unknown origin) at 1 uM
[10] = molecular target: Ribosomal protein S6 kinase alpha-5 (Homo sapiens) (UniProt O75582); assay: Inhibition of MSK1 (unknown origin) at 1 uM
[11] = molecular target: Serine/threonine-protein kinase Sgk2 (Homo sapiens) (UniProt Q9HBY8); assay: Inhibition of SGK2 (unknown origin) at 1 uM
[12] = molecular target: Testis-specific serine/threonine-protein kinase 6 (Homo sapiens) (UniProt Q9BXA6); assay: Inhibition of SSTK (unknown origin) at 1 uM
[13] = molecular target: Focal adhesion kinase 1 (Homo sapiens) (UniProt Q05397); assay: Inhibition of FAK (unknown origin) at 1 uM
[14] = molecular target: cAMP-dependent protein kinase catalytic subunit alpha (Homo sapiens) (UniProt P17612); assay: Inhibition of PKA (unknown origin) at 1 uM
HCT-116 [15] = assay: Antitumor immunity in BALB/c mouse xenografted with human HCT-116 cells assessed as late Treg cells in tumor-draining lymph nodes by propidium iodide staining based flow cytometry analysis (reference value: 18.3 %); format: functional
[16] = molecular target: Serine/threonine-protein kinase tousled-like 1 (Homo sapiens) (UniProt Q9UKI8); assay: Inhibition of TLK1 (unknown origin) at 1 uM
[17] = molecular target: Serine/threonine-protein kinase WNK3 (Homo sapiens) (UniProt Q9BYP7); assay: Inhibition of WNK3 (unknown origin) at 1 uM
[18] = molecular target: Myotonin-protein kinase (Homo sapiens) (UniProt Q09013); assay: Inhibition of DMPK (unknown origin) at 1 uM
[19] = molecular target: Rhodopsin kinase GRK7 (Homo sapiens) (UniProt Q8WTQ7); assay: Inhibition of GRK7 (unknown origin) at 1 uM
[20] = Oral bioavailability in Sprague-Dawley rat at 50 mg/kg; format: ADME, organism-based; details: in vivo
[21] = molecular target: Cyclin-Y/Cyclin-dependent kinase 16 (Homo sapiens) (UniProt Q00536+Q8ND76); assay: Inhibition of CDK16/cyclin-Y (unknown origin) at 1 uM; format: protein-complex assay
HCT-116 [22] = assay: Antitumor immunity in BALB/c mouse xenografted with human HCT-116 cells assessed as live Treg cells in spleen by propidium iodide staining based flow cytometry analysis (reference value: 70.9 %); format: functional
[23] = molecular target: Kinase suppressor of Ras 2 (Homo sapiens) (UniProt Q6VAB6); assay: Inhibition of KSR2 (unknown origin) at 1 uM
[24] = molecular target: cGMP-dependent protein kinase 1 (Homo sapiens) (UniProt Q13976); assay: Inhibition of PKG1alpha (unknown origin) at 1 uM
[25] = molecular target: Ephrin type-A receptor 1 (Homo sapiens) (UniProt P21709); assay: Inhibition of EPHA1 (unknown origin) at 1 uM
[26] = molecular target: Serine/threonine-protein kinase 16 (Homo sapiens) (UniProt O75716); assay: Inhibition of STK16 (unknown origin) at 1 uM
[27] = molecular target: Kinase suppressor of Ras 1 (Homo sapiens) (UniProt Q8IVT5); assay: Inhibition of KSR1 (unknown origin) at 1 uM
[28] = molecular target: CDK4/Cyclin D3 (Homo sapiens) (UniProt P11802+P30281); assay: Inhibition of CDK4/cyclin-D3 (unknown origin) at 1 uM; format: protein-complex assay
[29] = molecular target: Vascular endothelial growth factor receptor 1 (Homo sapiens) (UniProt P17948); assay: Inhibition of FLT1 (unknown origin) at 1 uM
[30] = molecular target: Insulin receptor (Homo sapiens) (UniProt P06213); assay: Inhibition of IR (unknown origin) at 1 uM
[31] = molecular target: Voltage-gated inwardly rectifying potassium channel KCNH2 (Homo sapiens, UniProt Q12809); assay: Inhibition of human ERG
[32] = molecular target: Mitogen-activated protein kinase kinase kinase 1 (Homo sapiens) (UniProt Q13233); assay: Inhibition of MEKK1 (unknown origin) at 1 uM
[33] = molecular target: Serine/threonine-protein kinase BRSK1 (Homo sapiens) (UniProt Q8TDC3); assay: Inhibition of BRSK1 (unknown origin) at 1 uM
[34] = molecular target: Serine/threonine-protein kinase MRCK beta (Homo sapiens) (UniProt Q9Y5S2); assay: Inhibition of MRCKbeta (unknown origin) at 1 uM
HCT-116 [35] = assay: Antitumor immunity in BALB/c mouse xenografted with human HCT-116 cells assessed as increase in TNFalpha in serum by […]; format: functional, cell-based
[36] = molecular target: Mitogen-activated protein kinase kinase kinase kinase 1 (Homo sapiens) (UniProt Q92918); assay: Inhibition of HPK1 (unknown origin) at 1 uM
[37] = molecular target: Serine/threonine-protein kinase tousled-like 2 (Homo sapiens) (UniProt Q86UE8); assay: Inhibition of TLK2 (unknown origin) at 1 uM
[38] = Half life in human liver microsomes; format: ADME, Microsome
[39] = molecular target: Serine/threonine-protein kinase Sgk3 (Homo sapiens) (UniProt Q96BR1); assay: Inhibition of SGK3 (unknown origin) at 1 uM
[40] = molecular target: MAP/microtubule affinity-regulating kinase 3 (Homo sapiens) (UniProt P27448); assay: Inhibition of MARK3 (unknown origin) at 1 uM
[41] = molecular target: Myosin light chain kinase (Homo sapiens) (UniProt Q32MK0); assay: Inhibition of MYLK3 (unknown origin) at 1 uM
[42] = Tmax in Sprague-Dawley rat at 50 mg/kg, po; format: ADME, organism-based; details: in vivo

Sequence of Voltage-gated inwardly rectifying potassium channel KCNH2 (Q12809 whole entry): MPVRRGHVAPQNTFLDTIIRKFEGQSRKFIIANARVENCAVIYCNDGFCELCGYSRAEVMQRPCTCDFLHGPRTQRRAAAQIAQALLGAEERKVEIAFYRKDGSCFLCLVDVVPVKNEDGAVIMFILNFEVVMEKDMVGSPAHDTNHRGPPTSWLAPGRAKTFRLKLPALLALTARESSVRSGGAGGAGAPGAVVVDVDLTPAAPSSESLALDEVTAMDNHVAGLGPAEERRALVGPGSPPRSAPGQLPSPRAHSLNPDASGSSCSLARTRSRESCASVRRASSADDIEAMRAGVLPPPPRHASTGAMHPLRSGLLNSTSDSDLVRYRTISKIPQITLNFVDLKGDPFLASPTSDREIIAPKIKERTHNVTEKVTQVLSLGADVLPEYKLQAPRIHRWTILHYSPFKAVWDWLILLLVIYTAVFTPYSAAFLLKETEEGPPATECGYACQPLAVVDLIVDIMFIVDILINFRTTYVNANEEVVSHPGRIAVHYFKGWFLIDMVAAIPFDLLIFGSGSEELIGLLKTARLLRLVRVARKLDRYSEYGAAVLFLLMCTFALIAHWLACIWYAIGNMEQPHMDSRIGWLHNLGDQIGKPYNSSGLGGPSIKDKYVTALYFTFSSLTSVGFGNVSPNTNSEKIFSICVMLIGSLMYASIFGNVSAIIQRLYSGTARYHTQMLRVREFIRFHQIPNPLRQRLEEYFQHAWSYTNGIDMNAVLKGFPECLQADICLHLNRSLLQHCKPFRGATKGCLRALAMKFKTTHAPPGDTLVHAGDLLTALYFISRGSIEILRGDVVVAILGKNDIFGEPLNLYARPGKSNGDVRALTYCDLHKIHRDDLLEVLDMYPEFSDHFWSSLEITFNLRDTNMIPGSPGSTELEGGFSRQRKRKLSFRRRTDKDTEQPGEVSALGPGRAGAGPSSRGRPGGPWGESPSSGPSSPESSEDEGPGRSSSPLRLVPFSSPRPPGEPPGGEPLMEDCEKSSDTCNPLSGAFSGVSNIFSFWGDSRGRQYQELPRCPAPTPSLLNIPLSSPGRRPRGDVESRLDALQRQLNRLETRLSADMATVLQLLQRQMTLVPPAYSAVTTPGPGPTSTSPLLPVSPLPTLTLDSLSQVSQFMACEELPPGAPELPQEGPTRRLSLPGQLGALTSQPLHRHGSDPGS
Sequence of Serine/threonine-protein kinase tousled-like 2 (Homo sapiens) (Q86UE8 whole entry, looked up): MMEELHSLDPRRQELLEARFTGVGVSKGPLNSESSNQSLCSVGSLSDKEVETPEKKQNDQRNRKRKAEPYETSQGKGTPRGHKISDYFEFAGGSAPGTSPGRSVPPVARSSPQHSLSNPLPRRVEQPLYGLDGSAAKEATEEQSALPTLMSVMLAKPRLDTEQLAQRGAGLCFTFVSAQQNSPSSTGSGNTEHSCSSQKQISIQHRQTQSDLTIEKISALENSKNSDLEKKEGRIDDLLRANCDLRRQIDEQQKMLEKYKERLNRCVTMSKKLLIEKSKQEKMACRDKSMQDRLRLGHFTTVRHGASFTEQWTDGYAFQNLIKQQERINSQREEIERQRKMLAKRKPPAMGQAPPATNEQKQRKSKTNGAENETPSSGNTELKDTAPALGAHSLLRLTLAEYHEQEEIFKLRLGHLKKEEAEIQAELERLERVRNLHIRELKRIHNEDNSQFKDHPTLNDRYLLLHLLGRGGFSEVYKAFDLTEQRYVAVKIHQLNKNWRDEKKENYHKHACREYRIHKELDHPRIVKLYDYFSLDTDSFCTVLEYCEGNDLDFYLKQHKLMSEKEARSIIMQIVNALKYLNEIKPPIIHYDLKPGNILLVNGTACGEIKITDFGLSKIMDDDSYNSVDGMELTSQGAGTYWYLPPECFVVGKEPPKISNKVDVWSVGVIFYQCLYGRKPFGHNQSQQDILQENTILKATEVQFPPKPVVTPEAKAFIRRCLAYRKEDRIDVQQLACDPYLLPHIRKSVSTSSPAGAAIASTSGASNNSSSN
Sequence of Serine/threonine-protein kinase tousled-like 1 (Homo sapiens) (Q9UKI8 whole entry): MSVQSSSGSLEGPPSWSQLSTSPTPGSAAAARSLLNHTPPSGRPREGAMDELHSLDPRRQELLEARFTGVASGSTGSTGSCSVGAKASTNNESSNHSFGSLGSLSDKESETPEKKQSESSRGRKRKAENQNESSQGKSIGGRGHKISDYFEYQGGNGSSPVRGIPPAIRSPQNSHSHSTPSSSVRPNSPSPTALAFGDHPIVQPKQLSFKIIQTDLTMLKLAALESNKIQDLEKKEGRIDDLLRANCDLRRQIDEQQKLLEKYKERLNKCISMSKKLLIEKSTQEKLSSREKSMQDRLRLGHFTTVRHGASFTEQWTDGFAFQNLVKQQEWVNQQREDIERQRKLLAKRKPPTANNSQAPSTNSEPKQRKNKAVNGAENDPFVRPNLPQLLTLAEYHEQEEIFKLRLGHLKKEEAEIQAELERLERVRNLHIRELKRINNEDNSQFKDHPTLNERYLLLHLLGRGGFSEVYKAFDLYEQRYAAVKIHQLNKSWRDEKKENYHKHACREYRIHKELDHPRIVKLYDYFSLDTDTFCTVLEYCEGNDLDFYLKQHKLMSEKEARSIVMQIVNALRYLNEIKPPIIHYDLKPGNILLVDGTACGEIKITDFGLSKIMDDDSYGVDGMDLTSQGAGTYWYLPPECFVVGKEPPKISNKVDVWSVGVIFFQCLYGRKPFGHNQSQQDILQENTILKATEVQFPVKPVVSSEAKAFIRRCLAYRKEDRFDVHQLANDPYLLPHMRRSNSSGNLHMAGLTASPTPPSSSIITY
Sequence of cGMP-dependent protein kinase 1 (Homo sapiens) (Q13976 whole entry): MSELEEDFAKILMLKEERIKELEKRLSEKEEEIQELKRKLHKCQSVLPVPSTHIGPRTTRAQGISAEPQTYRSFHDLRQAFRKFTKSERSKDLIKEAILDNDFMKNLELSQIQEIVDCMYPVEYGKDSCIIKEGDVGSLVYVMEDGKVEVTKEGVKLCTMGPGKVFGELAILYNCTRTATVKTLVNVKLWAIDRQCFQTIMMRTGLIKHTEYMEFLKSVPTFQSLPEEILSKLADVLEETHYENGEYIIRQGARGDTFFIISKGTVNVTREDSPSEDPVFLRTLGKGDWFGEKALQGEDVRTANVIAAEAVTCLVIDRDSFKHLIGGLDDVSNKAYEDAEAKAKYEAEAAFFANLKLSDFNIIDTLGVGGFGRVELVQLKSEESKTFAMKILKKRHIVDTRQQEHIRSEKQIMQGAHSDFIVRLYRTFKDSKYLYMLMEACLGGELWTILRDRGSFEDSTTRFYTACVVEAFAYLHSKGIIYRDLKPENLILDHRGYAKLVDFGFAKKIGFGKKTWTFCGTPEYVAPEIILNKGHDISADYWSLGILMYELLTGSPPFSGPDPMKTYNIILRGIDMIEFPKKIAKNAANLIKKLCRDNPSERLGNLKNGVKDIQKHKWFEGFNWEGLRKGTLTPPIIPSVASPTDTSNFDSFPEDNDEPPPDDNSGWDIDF
Sequence of Serine/threonine-protein kinase Sgk2 (Homo sapiens) (Q9HBY8 whole entry): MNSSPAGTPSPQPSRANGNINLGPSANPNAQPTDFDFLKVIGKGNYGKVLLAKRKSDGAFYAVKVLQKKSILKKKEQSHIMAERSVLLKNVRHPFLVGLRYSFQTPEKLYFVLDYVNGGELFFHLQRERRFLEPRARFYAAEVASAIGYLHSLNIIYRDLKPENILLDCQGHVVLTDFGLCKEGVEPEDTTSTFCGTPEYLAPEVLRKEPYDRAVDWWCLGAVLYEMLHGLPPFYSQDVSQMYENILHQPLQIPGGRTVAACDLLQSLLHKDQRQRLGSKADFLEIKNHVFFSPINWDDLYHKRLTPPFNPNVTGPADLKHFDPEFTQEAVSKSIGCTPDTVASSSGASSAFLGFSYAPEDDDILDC
Sequence of Kinase suppressor of Ras 2 (Homo sapiens) (Q6VAB6 whole entry): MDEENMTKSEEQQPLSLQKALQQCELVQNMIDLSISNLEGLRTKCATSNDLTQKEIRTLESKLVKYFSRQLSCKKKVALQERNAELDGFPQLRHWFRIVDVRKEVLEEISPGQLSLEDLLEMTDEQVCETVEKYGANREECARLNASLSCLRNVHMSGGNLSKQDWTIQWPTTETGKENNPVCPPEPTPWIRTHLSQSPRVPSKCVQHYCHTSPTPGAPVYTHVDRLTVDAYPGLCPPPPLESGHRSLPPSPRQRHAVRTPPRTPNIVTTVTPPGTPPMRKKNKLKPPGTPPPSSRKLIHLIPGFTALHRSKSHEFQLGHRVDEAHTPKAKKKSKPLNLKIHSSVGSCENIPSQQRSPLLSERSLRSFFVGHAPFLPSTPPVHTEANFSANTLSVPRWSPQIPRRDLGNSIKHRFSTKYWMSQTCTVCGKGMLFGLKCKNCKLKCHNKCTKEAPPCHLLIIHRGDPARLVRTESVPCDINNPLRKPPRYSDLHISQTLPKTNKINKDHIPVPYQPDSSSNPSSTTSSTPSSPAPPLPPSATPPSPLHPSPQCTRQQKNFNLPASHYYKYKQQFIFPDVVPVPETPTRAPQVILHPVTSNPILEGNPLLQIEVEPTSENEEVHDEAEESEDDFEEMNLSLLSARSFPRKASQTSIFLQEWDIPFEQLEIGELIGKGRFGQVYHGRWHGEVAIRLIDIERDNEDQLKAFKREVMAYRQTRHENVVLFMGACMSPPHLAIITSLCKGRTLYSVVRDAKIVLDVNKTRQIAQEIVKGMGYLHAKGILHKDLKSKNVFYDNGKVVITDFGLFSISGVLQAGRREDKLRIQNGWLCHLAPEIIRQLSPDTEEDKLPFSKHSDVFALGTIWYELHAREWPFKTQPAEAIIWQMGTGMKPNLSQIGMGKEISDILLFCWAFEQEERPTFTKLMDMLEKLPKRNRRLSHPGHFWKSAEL
Sequence of Testis-specific serine/threonine-protein kinase 6 (Homo sapiens) (Q9BXA6 whole entry): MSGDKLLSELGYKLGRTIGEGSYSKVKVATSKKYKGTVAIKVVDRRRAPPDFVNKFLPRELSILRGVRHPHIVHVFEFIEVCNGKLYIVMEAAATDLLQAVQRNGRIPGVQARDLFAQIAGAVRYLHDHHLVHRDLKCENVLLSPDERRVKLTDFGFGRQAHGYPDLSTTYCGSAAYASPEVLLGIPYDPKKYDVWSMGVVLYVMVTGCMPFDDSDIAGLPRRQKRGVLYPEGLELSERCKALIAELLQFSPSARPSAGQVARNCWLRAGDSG

OCCOCc1cn(CCNc2nonc2/C(=N/O)Nc2ccc(F)c(Br)c2)nn1
inactive: inhibition [1] | inhibition [2] | inhibition [3] | inhibition [5] | inhibition (Homo sapiens) | inhibition [7] | inhibition [8] | inhibition [9] | inhibition [10] | inhibition [11] | inhibition [12] | inhibition [13] | inhibition [14] | inhibition [16] | inhibition [17] | inhibition [18] | inhibition [19] | inhibition [21] | inhibition [23] | inhibition [24] | inhibition [25] | inhibition [26] | inhibition [27] | inhibition [28] | inhibition [29] | inhibition [30] | inhibition [32] | inhibition [33] | inhibition [34] | inhibition [36] | inhibition [37] | inhibition [39] | inhibition [40] | inhibition [41]
> 30 µM: IC50 [31]
Not Active: Activity [4]
1.3 h: Tmax [42]
12%: bioavailability [20]
6.4: efflux ratio [6]
87.4%: Activity (HCT-116 [22])
69.7%: inhibition in vivo at 50 mg/kg (CT26)
7.31%: Activity (HCT-116 [15])
active: Activity (HCT-116 [35])
46.1 min: half-life [38]
